{"source": "paper PMC12514245", "about": "“Impaired migration and lung invasion of human melanoma by a novel small molecule targeting the transmembrane domain of death receptor p75^NTR” (EMBO Molecular Medicine, 2025)", "key": {"A875 melanoma cells (NT)": {"test_system": "A875 melanoma cells (NT)", "test": "Cleaved PARP western blot (apoptosis), A875 NT", "type": "cell-based, human", "method": "One of the main biological readouts of p75^NTR activity in response to neurotrophins is the induction of caspase-mediated apoptotic cell death (Underwood and Coulson, [2008]; Friedman, [2010]; Ibáñez and Simi, [2012]).\nCOS7, A875 and WM115 cell lines were cultured under standard conditions in DMEM supplemented with 10% fetal calf serum, 100 units/ml penicillin, […] streptomycin, and 2.5 mM glutamine. All cells were authenticated and tested for mycoplasma contamination. A875-NT (control) and A875 shp75 (knockdown) cell lines were described previously (Goh et al, [2018])."}, "A875 NT cells": {"test_system": "A875 NT cells", "test": "Wound healing cell motility assay, A875 NT", "type": "cell-based, human", "details": "for Wound area, Mean: N=3; for Wound area (Fold), Mean / Wound area (Fold), individual replicates: 10uM; for Wound area (Fold): A875 NT, 1uM", "method": "For wound healing assay, cells were grown until confluency and subjected to a wound across the cell mono-layer. Cells were then incubated with serum-free media either with DMSO or a small molecule (with or without 5 µM Q_VD_poH) and imaged at specific time-points. Cell migration is reflected as fold change in wound area over time."}, "[1]": {"details": "5μM Q_VD_poH + 10μM Div17E5, 0 hours"}, "[2]": {"details": "5μM Q_VD_poH + 10μM Div17E5, 3 hours"}, "[3]": {"details": "5μM Q_VD_poH + 10μM Div17E5, 6 hours"}, "[4]": {"details": "5μM Q_VD_poH + 10μM Div17E5, 9 hours"}, "[5]": {"details": "5μM Q_VD_poH + 10μM Div17E5, 12 hours"}, "[6]": {"details": "5μM Q_VD_poH + 10μM Div17E5, 15 hours"}, "[7]": {"details": "5μM Q_VD_poH + 10μM Div17E5, 18 hours"}, "[8]": {"details": "5μM Q_VD_poH + 10μM Div17E5, 21 hours"}, "[9]": {"details": "5μM Q_VD_poH + 10μM Div17E5, 24 hours"}}, "note": "Values joined by “and” are separate entries in the source; they are usually repeats but may differ in a detail not shown here. Equal values may be shown once.", "data": [{"compound": "Oc1ccc(-c2cncc(Nc3ccc(Br)c(Cl)c3)n2)cc1", "note": "[Div17E5]", "values": [{"measurement": "apoptosis (cleavage of PARP)", "setting": "A875 melanoma cells (NT)", "result": "induced apoptosis"}, {"measurement": "Cleaved PARP normalized to DMSO, individual replicates", "setting": "A875 melanoma cells (NT); 0.5uM", "result": "2.699 and 3.180 and 5.109"}, {"measurement": "Cleaved PARP/actin, individual replicates", "setting": "A875 melanoma cells (NT); 0.5uM", "result": "0.023 and 0.026 and 0.037"}, {"measurement": "Cleaved PARP normalized to DMSO, Average", "setting": "A875 melanoma cells (NT); 0.5μM", "result": 3.662}, {"measurement": "Cleaved PARP normalized to DMSO, individual replicates", "setting": "A875 melanoma cells (NT); 1uM", "result": "10.573 and 9.243 and 5.315"}, {"measurement": "Cleaved PARP/actin, individual replicates", "setting": "A875 melanoma cells (NT); 1uM", "result": "0.078 and 0.043 and 0.077"}, {"measurement": "Cleaved PARP normalized to DMSO, Average", "setting": "A875 melanoma cells (NT); 1μM", "result": 8.377}, {"measurement": "Cleaved PARP normalized to DMSO, individual replicates", "setting": "A875 melanoma cells (NT); 2uM", "result": "25.774 and 23.617 and 17.703"}, {"measurement": "Cleaved PARP/actin, individual replicates", "setting": "A875 melanoma cells (NT); 2uM", "result": "0.187 and 0.200 and 0.142"}, {"measurement": "Cleaved PARP normalized to DMSO, Average", "setting": "A875 melanoma cells (NT); 2μM", "result": 22.365}, {"measurement": "Cleaved PARP normalized to DMSO, individual replicates", "setting": "A875 melanoma cells (NT); 5uM", "result": "31.874 and 36.234 and 27.415"}, {"measurement": "Cleaved PARP/actin, individual replicates", "setting": "A875 melanoma cells (NT); 5uM", "result": "0.231 and 0.306 and 0.220"}, {"measurement": "Cleaved PARP normalized to DMSO, Average", "setting": "A875 melanoma cells (NT); 5μM", "result": 31.841}, {"measurement": "cell motility (wound healing)", "setting": "A875 NT cells", "result": "significantly impaired motility"}, {"measurement": "Wound area, n1-n3", "setting": "A875 NT cells; [1]", "result": "1.151 Fold and 0.989 Fold and 0.859 Fold"}, {"measurement": "Wound area, Mean", "setting": "A875 NT cells; [1]", "result": 1.000, "unit": "Fold"}, {"measurement": "Wound area, n1-n3", "setting": "A875 NT cells; [2]", "result": "0.948 Fold and 1.003 Fold and 1.022 Fold"}, {"measurement": "Wound area, Mean", "setting": "A875 NT cells; [2]", "result": 0.991, "unit": "Fold"}, {"measurement": "Wound area, n1-n3", "setting": "A875 NT cells; [3]", "result": "0.944 Fold and 0.988 Fold and 1.047 Fold"}, {"measurement": "Wound area, Mean", "setting": "A875 NT cells; [3]", "result": 0.993, "unit": "Fold"}, {"measurement": "Wound area, n1-n3", "setting": "A875 NT cells; [4]", "result": "0.936 Fold and 0.934 Fold and 1.001 Fold"}, {"measurement": "Wound area, Mean", "setting": "A875 NT cells; [4]", "result": 0.957, "unit": "Fold"}, {"measurement": "Wound area, n1-n3", "setting": "A875 NT cells; [5]", "result": "0.937 Fold and 0.894 Fold and 1.002 Fold"}, {"measurement": "Wound area, Mean", "setting": "A875 NT cells; [5]", "result": 0.944, "unit": "Fold"}, {"measurement": "Wound area, n1-n3", "setting": "A875 NT cells; [6]", "result": "0.938 Fold and 0.874 Fold and 0.985 Fold"}, {"measurement": "Wound area, Mean", "setting": "A875 NT cells; [6]", "result": 0.932, "unit": "Fold"}, {"measurement": "Wound area, n1-n3", "setting": "A875 NT cells; [7]", "result": "0.920 Fold and 0.852 Fold and 0.976 Fold"}, {"measurement": "Wound area, Mean", "setting": "A875 NT cells; [7]", "result": 0.916, "unit": "Fold"}, {"measurement": "Wound area, n1-n3", "setting": "A875 NT cells; [8]", "result": "0.922 Fold and 0.829 Fold and 0.962 Fold"}, {"measurement": "Wound area, Mean", "setting": "A875 NT cells; [8]", "result": 0.904, "unit": "Fold"}, {"measurement": "Wound area, n1-n3", "setting": "A875 NT cells; [9]", "result": "0.916 Fold and 0.831 Fold and 0.939 Fold"}, {"measurement": "Wound area, Mean", "setting": "A875 NT cells; [9]", "result": 0.895, "unit": "Fold"}, {"measurement": "wound healing assay, comparison of Div17E5, MS_18 and MS_63", "setting": "A875 NT cells; 10 µM", "result": "the better of the three"}, {"measurement": "Wound area, Mean", "setting": "A875 NT cells; 10μM Div17E5, 0 hours", "result": 1.000, "unit": "Fold"}, {"measurement": "Wound area, n1-n3", "setting": "A875 NT cells; 10μM Div17E5, 3 hours", "result": "1.026 Fold and 0.986 Fold and 1.104 Fold"}, {"measurement": "Wound area, Mean", "setting": "A875 NT cells; 10μM Div17E5, 3 hours", "result": 1.039, "unit": "Fold"}, {"measurement": "Wound area, n1-n3", "setting": "A875 NT cells; 10μM Div17E5, 6 hours", "result": "0.988 Fold and 0.956 Fold and 1.073 Fold"}, {"measurement": "Wound area, Mean", "setting": "A875 NT cells; 10μM Div17E5, 6 hours", "result": 1.006, "unit": "Fold"}, {"measurement": "Wound area, n1-n3", "setting": "A875 NT cells; 10μM Div17E5, 9 hours", "result": "0.922 Fold and 0.923 Fold and 1.017 Fold"}, {"measurement": "Wound area, Mean", "setting": "A875 NT cells; 10μM Div17E5, 9 hours", "result": 0.954, "unit": "Fold"}, {"measurement": "Wound area, n1-n3", "setting": "A875 NT cells; 10μM Div17E5, 12 hours", "result": "0.909 Fold and 0.918 Fold and 0.979 Fold"}, {"measurement": "Wound area, Mean", "setting": "A875 NT cells; 10μM Div17E5, 12 hours", "result": 0.935, "unit": "Fold"}, {"measurement": "Wound area, n1-n3", "setting": "A875 NT cells; 10μM Div17E5, 15 hours", "result": "0.913 Fold and 0.881 Fold and 0.951 Fold"}, {"measurement": "Wound area, Mean", "setting": "A875 NT cells; 10μM Div17E5, 15 hours", "result": 0.915, "unit": "Fold"}, {"measurement": "Wound area, n1-n3", "setting": "A875 NT cells; 10μM Div17E5, 18 hours", "result": "0.881 Fold and 0.866 Fold and 0.915 Fold"}, {"measurement": "Wound area, Mean", "setting": "A875 NT cells; 10μM Div17E5, 18 hours", "result": 0.887, "unit": "Fold"}, {"measurement": "Wound area, n1-n3", "setting": "A875 NT cells; 10μM Div17E5, 21 hours", "result": "0.886 Fold and 0.863 Fold and 0.915 Fold"}, {"measurement": "Wound area, Mean", "setting": "A875 NT cells; 10μM Div17E5, 21 hours", "result": 0.888, "unit": "Fold"}, {"measurement": "Wound area, n1-n3", "setting": "A875 NT cells; 10μM Div17E5, 24 hours", "result": "0.865 Fold and 0.854 Fold and 0.889 Fold"}, {"measurement": "Wound area, Mean", "setting": "A875 NT cells; 10μM Div17E5, 24 hours", "result": 0.870, "unit": "Fold"}, {"measurement": "Wound area (Fold), Mean", "setting": "A875 NT cells; 0 hours", "result": 1, "unit": "Fold"}, {"measurement": "Wound area (Fold), individual replicates", "setting": "A875 NT cells; 0 hours", "result": 1.000, "unit": "Fold"}, {"measurement": "Wound area (Fold), Mean", "setting": "A875 NT cells; 3 hours", "result": 0.931, "unit": "Fold"}, {"measurement": "Wound area (Fold), individual replicates", "setting": "A875 NT cells; 3 hours", "result": "0.928 Fold and 0.933 Fold"}, {"measurement": "Wound area (Fold), Mean", "setting": "A875 NT cells; 6 hours", "result": 0.912, "unit": "Fold"}, {"measurement": "Wound area (Fold), individual replicates", "setting": "A875 NT cells; 6 hours", "result": "0.898 Fold and 0.926 Fold"}, {"measurement": "Wound area (Fold), Mean", "setting": "A875 NT cells; 9 hours", "result": 0.866, "unit": "Fold"}, {"measurement": "Wound area (Fold), individual replicates", "setting": "A875 NT cells; 9 hours", "result": "0.856 Fold and 0.878 Fold"}, {"measurement": "Wound area (Fold), Mean", "setting": "A875 NT cells; 12 hours", "result": 0.895, "unit": "Fold"}, {"measurement": "Wound area (Fold), individual replicates", "setting": "A875 NT cells; 12 hours", "result": "0.846 Fold and 0.944 Fold"}, {"measurement": "Wound area (Fold), Mean", "setting": "A875 NT cells; 15 hours", "result": 0.862, "unit": "Fold"}, {"measurement": "Wound area (Fold), individual replicates", "setting": "A875 NT cells; 15 hours", "result": "0.814 Fold and 0.91 Fold"}, {"measurement": "Wound area (Fold), Mean", "setting": "A875 NT cells; 18 hours", "result": 0.863, "unit": "Fold"}, {"measurement": "Wound area (Fold), individual replicates", "setting": "A875 NT cells; 18 hours", "result": "0.826 Fold and 0.899 Fold"}, {"measurement": "Wound area (Fold), Mean", "setting": "A875 NT cells; 21 hours", "result": 0.869, "unit": "Fold"}, {"measurement": "Wound area (Fold), individual replicates", "setting": "A875 NT cells; 21 hours", "result": "0.805 Fold and 0.934 Fold"}, {"measurement": "Wound area (Fold), Mean", "setting": "A875 NT cells; 24 hours", "result": 0.869, "unit": "Fold"}, {"measurement": "Wound area (Fold), individual replicates", "setting": "A875 NT cells; 24 hours", "result": "0.812 Fold and 0.927 Fold"}, {"measurement": "Wound area (Fold)", "setting": "A875 NT cells; 0 h, Mean", "result": 1.000, "unit": "Fold"}, {"measurement": "Wound area (Fold)", "setting": "A875 NT cells; 0 h, n1", "result": 1.026, "unit": "Fold"}, {"measurement": "Wound area (Fold)", "setting": "A875 NT cells; 0 h, n2", "result": 0.960, "unit": "Fold"}, {"measurement": "Wound area (Fold)", "setting": "A875 NT cells; 0 h, n3", "result": 1.014, "unit": "Fold"}, {"measurement": "Wound area (Fold)", "setting": "A875 NT cells; 3 h, Mean", "result": 0.953, "unit": "Fold"}, {"measurement": "Wound area (Fold)", "setting": "A875 NT cells; 3 h, n1", "result": 0.950, "unit": "Fold"}, {"measurement": "Wound area (Fold)", "setting": "A875 NT cells; 3 h, n2", "result": 0.945, "unit": "Fold"}]}]}
